Measurements published in US7553848B2, “Vanilloid receptor ligands and their use in treatments” (Amgen Inc., priority 2004, dated 2009).

Structure (SMILES)	melting point [°C]
CC(C)(C)c1ccc2c(c1)CN[C@H](C(=O)Nc1ccc3c(c1)OCCO3)C2.Cl	134
CC(C)(C)c1ccc2cc(C(=O)Nc3ccc4c(c3)OCCO4)ncc2c1 [Example 11, 7-tert-Butyl-isoquinoline-3-carboxylic acid (2,3-dihydro-benzo[1,4]dioxin-6-yl)-amide]	154 to 157
O=C(Nc1ccc2c(c1)OCCO2)c1cc2ncc(C(F)(F)F)cc2s1 [Example 12, 6-Trifluoromethyl-thieno[3,2-b]pyridine-2-carboxylic acid (2,3-dihydro-benzo[1,4]dioxin-6-yl)-amide]	247
O=C(Nc1ccc2c(c1)OCCO2)c1cnc2cc(C(F)(F)F)ccc2c1Cl [Example 13, 4-Chloro-7-trifluoromethyl-quinoline-3-carboxylic acid (2,3-dihydro-benzo[1,4]dioxin-6-yl)-amide]	296

Results, then the compound that gave them:

melting point [°C]	Structure (SMILES)
285.4 to 285.9	CC(=O)Nc1nc2c(NC(=O)c3cc4ccc(C(F)(F)F)cc4s3)cccc2s1
241.6	CC(=O)Nc1nc2c(NC(=O)c3ccc4cc(Br)ccc4c3)cccc2s1 [Example 4, 6-Bromo-naphthalene-2-carboxylic acid (2-acetylamino-benzothiazol-4-yl)-amide]
222.7	O=C(Nc1ccc2c(c1)OCCO2)c1ccc2cc(Br)ccc2c1 [Example 14, 6-Bromo-naphthalene-2-carboxylic acid (2,3-dihydro-benzo[1,4]dioxin-6-yl)-amide]
